Type in all cases: functional, cell-based
Test [1] deals with MDA-MB-435. Description: Cytotoxicity against human MDA-MB-435 cells after 72 hrs by MTT assay. Particulars: MDA-MB-435, 72 h. A general note: Tetrazolium assays rely on reduction of a dye to a coloured formazan, in cell work by metabolically active cells.
Test [2] deals with HCT-116. Nature of the test: Cytotoxicity against human HCT116 cells after 72 hrs by MTT assay. To be noted: HCT-116, 72 h.
In test [3] the test system is A549. Nature of the test: Cytotoxicity against human A549 cells after 72 hrs by MTT assay. Particulars: A549, 72 h.

The term IC50 denotes the concentration needed to halve the response being measured. Lower therefore signals greater potency in that assay. On to `COc1ccc2[nH]c3c(c2c1)CCN1C(=O)c2ccccc2C31O` (stereo not given), for which the IC50 in test [1], in test [2] and in test [3] was above 200 µM in each case.
As to `O=C1c2cc3ccccc3cc2OC2c3[nH]c4ccc(O)cc4c3CCN12` (stereo not given), the IC50 in test [1] worked out at 5.1 µM; in test [2] it was 5.1 µM; in test [3], 5.6 µM.
For the compound `Cc1cccc2c1C(=S)N1CCc3c([nH]c4ccccc34)C1O2` (stereo not given), the values for the IC50 in test [1], in test [2] and in test [3] were 4.5 µM, 3.8 µM and 11 µM, respectively.
In the same order, the values of `Cc1ccc2c(c1)OC1c3[nH]c4ccccc4c3CCN1C2=O` (stereo not given) are 97.2 µM, 25.5 µM and 62.5 µM.
The matching figures for `COc1ccc2[nH]c3c(c2c1)CCN1C(=O)c2ccc(C(F)(F)F)cc2OC31` (stereo not given): 26.2 µM, 31.7 µM and 50.5 µM.
The matching figures for `O=C1c2cc(O)ccc2OC2c3[nH]c4ccccc4c3CCN12` (stereo not given): 11.5 µM, 1.9 µM and 16.2 µM.
In the case of `O=C1c2cc(F)ccc2OC2c3[nH]c4ccccc4c3CCN12` (stereo not given), the IC50 was found to be 46.1 µM in test [1], 5.8 µM in test [2] and 6.6 µM in test [3].
With `CN1c2cscc2C(=O)N2CCc3c([nH]c4ccc(O)cc34)C21` (stereo not given), the IC50 in test [1] turned out to be 32.3 µM; in test [2], 4.8 µM; in test [3] it was 3.9 µM.
The matching figures for `COc1ccc2[nH]c3c(c2c1)CCN1C(=O)c2c(ccc4ccccc24)OC31` (stereo not given): 31 µM, above 200 µM and above 200 µM.
In the case of `O=C1c2ccc(C(F)(F)F)cc2OC2c3[nH]c4ccc(O)cc4c3CCN12` (stereo not given), the IC50 in test [1] amounted to 10.5 µM; in test [2], 10.9 µM; in test [3], 14.7 µM.
In the same order, the values of `CCc1c2c(nc3ccc(OC(=O)N4CCC(N5CCCCC5)CC4)cc13)-c1cc3c(c(=O)n1C2)COC(=O)[C@]3(O)CC` [IRINOTECAN] are 6.3 µM, 18.6 µM and 20.1 µM.
Regarding `CC(=O)Nc1ccc2c(c1)C(=O)N1CCc3c([nH]c4ccccc34)C1O2` (stereo not given), the values for the half-maximal inhibitory concentration (IC50) in test [1], in test [2] and in test [3] were 19.6 µM, 5.8 µM and 20.1 µM, respectively.
`O=C1c2cc(Br)ccc2OC2c3[nH]c4ccc(O)cc4c3CCN12` (stereo not given): the IC50 in test [1] was below 0.003 µM; in test [2], below 0.003 µM; in test [3], 0.06 µM.
For the compound `COc1ccc2c(c1)OC1c3[nH]c4ccc(OC)cc4c3CCN1C2=O` (stereo not given), the IC50 in test [1], in test [2] and in test [3] was above 200 µM throughout.
On to `Cc1cccc2c1C(=O)N1CCc3c([nH]c4ccc(O)cc34)C1O2` (stereo not given), for which the IC50 in test [1] was below 0.003 µM; in test [2] it was below 0.003 µM; in test [3] it was 1.8 µM.
Take `O=C1c2c(ccc3ccccc23)OC2c3[nH]c4ccc(O)cc4c3CCN12` (stereo not given): the IC50 in test [1] came to 2.7 µM; in test [2], 6.3 µM; in test [3], 3.1 µM.
In the same order, the values of `COc1ccc2[nH]c3c(c2c1)CCN1C(=O)c2ccccc2[C@H]31` are above 200 µM, 30.9 µM and 193 µM.
The matching figures for `CN1c2ccccc2C(=O)N2CCc3c([nH]c4ccccc34)[C@@H]21` [EVODIAMINE]: 22.1 µM, above 200 µM and above 200 µM.
In the same order, the values of `COc1ccc2c(c1)C(=O)N1CCc3c([nH]c4ccc(OC)cc34)C1O2` (stereo not given) are 10.1 µM, 23.7 µM and 9.5 µM.
Regarding `CCNc1ccc2c(c1)C(=O)N1CCc3c([nH]c4ccccc34)C1O2` (stereo not given), the IC50 in test [1] was above 200 µM; in test [2], 39.4 µM; in test [3], above 200 µM.
For the compound `O=C1c2cc(Br)ccc2OC2c3[nH]c4ccccc4c3CCN12` (stereo not given), the IC50 in test [1] worked out at 3.7 µM; in test [2], 13.8 µM; in test [3] it was 1.6 µM.
For `COc1cccc2c1OC1c3[nH]c4ccccc4c3CCN1C2=O` (stereo not given), the values for the IC50 in test [1], in test [2] and in test [3] were 16.9 µM, 2.21 µM and 26.8 µM, respectively.
As for `COc1ccc2[nH]c3c(c2c1)CCN1C(=O)c2cc4ccccc4cc2OC31` (stereo not given), the IC50 in test [1] was 34.8 µM; in test [2], 58 µM; in test [3], above 200 µM.
With `O=C1c2ccccc2OC2c3[nH]c4ccc(Cl)cc4c3CCN12` (stereo not given), the results for the half-inhibitory concentration (IC50) in test [1], in test [2] and in test [3] were 5.59 µM, 2.1 µM and 3.49 µM, respectively.
For `COc1ccc2[nH]c3c(c2c1)CCN1C(=O)c2ccsc2N(C)C31` (stereo not given), the IC50 in test [1] is 36.2 µM; in test [2], 14.1 µM; in test [3] it was 26.9 µM.
As for `O=C1c2c(F)cccc2OC2c3[nH]c4ccccc4c3CCN12` (stereo not given), the IC50 in test [1] is 71 µM; in test [2], 31 µM; in test [3] it was 35.1 µM.
The matching figures for `COc1ccc2c(c1)OC1c3[nH]c4ccccc4c3CCN1C2=O` (stereo not given): 52.3 µM, 71.2 µM and 174 µM.
In the same order, the values of `O=C1c2ccc(Cl)cc2OC2c3[nH]c4ccc(O)cc4c3CCN12` (stereo not given) are 7.1 µM, 18.7 µM and 10.6 µM.
As to `CN1c2ccccc2C(=O)N2CCCc3c([nH]c4ccc(O)cc34)C21` (stereo not given), the IC50 in test [1] was 69.2 µM; in test [2] it was 59.8 µM; in test [3], 32.4 µM.
The matching figures for `O=C1c2cc(Cl)cc(Cl)c2OC2c3[nH]c4ccc(O)cc4c3CCN12` (stereo not given): 0.3 µM, 7 µM and 8.6 µM.
In the same order, the values of `CN1c2ccsc2C(=O)N2CCc3c([nH]c4ccc(O)cc34)C21` (stereo not given) are above 200 µM, 23.6 µM and 15.8 µM.
In the same order, the values of `CCCNc1ccc2c(c1)C(=O)N1CCc3c([nH]c4ccccc34)C1O2` (stereo not given) are above 200 µM, 16.7 µM and 173 µM.
Take `COc1ccc2c(c1)C(=O)N1CCc3c([nH]c4ccccc34)C1O2` (stereo not given): the IC50 was above 200 µM in test [1], 25.6 µM in test [2] and 14.8 µM in test [3].
With `CN1c2ccsc2C(=O)N2CCc3c([nH]c4ccccc34)C21` (stereo not given), the figures for the half-inhibitory concentration (IC50) in test [1], in test [2] and in test [3] were above 200 µM, 192 µM and 111 µM, respectively.
`COc1ccc2[nH]c3c(c2c1)CCN1C(=O)c2sccc2N(C)C31` (stereo not given): the IC50 in test [1], in test [2] and in test [3] was above 200 µM throughout.
With `O=C1c2ccccc2OC2c3[nH]c4ccccc4c3CCN12` (stereo not given), the IC50 came to 3 µM in test [1], 3.1 µM in test [2] and 2.4 µM in test [3].
`Nc1ccc2c(c1)C(=O)N1CCc3c([nH]c4ccccc34)C1O2` (stereo not given): the IC50 was determined as 9.1 µM in test [1], 2.3 µM in test [2] and 2.7 µM in test [3].
The matching figures for `COc1ccc2[nH]c3c(c2c1)CCN1C(=O)c2c(ccn2C)N(C)C31` (stereo not given): 42 µM, 54.1 µM and 28.5 µM.
As for `COc1ccc2[nH]c3c(c2c1)CCN1C(=O)c2cc(Cl)ccc2OC31` (stereo not given), the results for the IC50 in test [1], in test [2] and in test [3] were 2.4 µM, 1 µM and 0.05 µM, respectively.
The matching figures for `CCCN(CCC)c1ccc2c(c1)C(=O)N1CCc3c([nH]c4ccccc34)C1O2` (stereo not given): above 200 µM, 2.3 µM and above 200 µM.
The matching figures for `CN1c2ccn(C)c2C(=O)N2CCc3c([nH]c4ccccc34)C21` (stereo not given): 207 µM, 76.5 µM and above 200 µM.
The matching figures for `S=C1c2ccccc2OC2c3[nH]c4ccccc4c3CCN12` (stereo not given): 4.8 µM, 5.6 µM and 7.7 µM.
As for `COc1ccc2[nH]c3c(c2c1)CCN1C(=O)c2ccc(F)cc2OC31` (stereo not given), the IC50 in test [1] is 157 µM; in test [2], 37.1 µM; in test [3], above 200 µM.
As to `O=C1c2cc(Cl)cc(Cl)c2OC2c3[nH]c4ccccc4c3CCN12` (stereo not given), the IC50 in test [1] was 14.2 µM; in test [2] it was 6.7 µM; in test [3], 1.8 µM.
`O=C1c2ccc(F)cc2OC2c3[nH]c4ccccc4c3CCN12` (stereo not given): the IC50 came to 171 µM in test [1], 6.7 µM in test [2] and 95 µM in test [3].
Regarding `O=C1c2cc(Cl)ccc2OC2c3[nH]c4ccccc4c3CCN12` (stereo not given), the 50% inhibitory concentration (IC50) worked out at 0.6 µM in test [1], 1.4 µM in test [2] and 0.05 µM in test [3].
The matching figures for `COc1ccc2[nH]c3c(c2c1)CCN1C(=O)c2cscc2N(C)C31` (stereo not given): 49 µM, 94.9 µM and 32.3 µM.
In the same order, the values of `COc1ccc2[nH]c3c(c2c1)CCN1C(=O)c2cc(Br)ccc2OC31` (stereo not given) are 7.1 µM, 5.4 µM and 2.6 µM.
For the compound `O=C1c2cccc(O)c2OC2c3[nH]c4ccccc4c3CCN12` (stereo not given), the 50% inhibitory concentration (IC50) in test [1] was 42.3 µM; in test [2] it was above 200 µM; in test [3], 103 µM.
In the same order, the values of `COc1ccc2[nH]c3c(c2c1)CCN1C(=O)c2ccc(Cl)cc2OC31` (stereo not given) are 4.6 µM, 8.7 µM and 3.8 µM.

The values are drawn from ChEMBL document CHEMBL3600310 (J Med Chem, 2015).
